Laboratory results as given in patent US20260256734A1, “COMPOSITIONS COMPRISING SILYMARIN (OR) CURCUMIN AND METFORMIN, METHODS AND APPLICATIONS THEREOF” (ACUBIOSYS PRIVATE LIMITED, priority 2022, published 2026).

What was measured:
[1] = tested on: inflammatory markers (IL-17, IL-1β and IL-23) in IMQ-induced differentiated HaCaT cells; assay: In vitro IMQ-induced psoriatic model, inflammatory markers in conditioned media; assay type: cell-based; conditions: IMQ 100 μM, formulation in culture media 48 hr, mean ± S.D.
Text: This study was designed to investigate the effect of a Metf+SMR and Metf+SMR hydro-gel formulation on an IMQ-induced psoriasis-like mouse model. The composition of the hydrogel formulation prepared by using 1.5% crosslinked polyacrylic acid polymer and 1.5% triethanolamine is provided. In doing so, the Applicant expected to obtain supportive evidence of a role for the formulation in treating psoriasis. For that the Applicant has developed hydrogel-based formulations: 1. Metformin and 2. Metformin-silybin (Metf+SMR) 3. Metformin-curcumin (Metf+CMR) and studied invitro cell toxicity in A431 cells by MTT assay and invitro IMQ-induced psoriatic modal using HaCaT cells and determined the inflammatory markers (IL-1β, IL-23 and IL-17).
To set up an efficient and consistent model for psoriasis in vitro, differentiated HaCaT cells were used to screen our test formulations. HaCaT cells were incubated with 2 mM calcium chloride (CaCl2) to achieve differentiation. Induction of psoriatic-like inflammation was achieved by treating the cells with Imiquimod (IMQ) ([…]). The differentiation and inflammation were confirmed by microscopic images. After inflammation, the cells were treated with different formulation dissolved in culture media and incubated for 48 hr. Clobetasol cream formulation was used as a positive control. After incubation, the conditioned media was collected and used for estimation of inflammatory markers (IL-17, IL-1β and IL-23).

[2] = tested on: IMQ-induced psoriasis model in C57BL/6 Mice; assay: IMQ induced psoriatic plaque model, topical hydrogel treatment; assay type: in vivo
Protocol: Hair was shaved along the back of the anesthetized mouse from shoulder to hip by using electric clippers or depilatory cream. Psoriasis-like lesions were induced by a daily topical application of a commercially available IMQ cream (62.5 mg/day for 5 days D1-D5) on the shaved back skin of C57BL/6 mice.
Animals were randomly assigned to the different groups after reaching a maximum score of 4 with respect to erythema, scale, and thickness. Animals that didn't score 4 were excluded from the experiment. Sham psoriasis animals were administered with Vaseline cream; IMQ animals, were only challenged with imiquimod cream, and IMQ animals were treated with a hydrogel that was topically applied using a nylon mesh for even distribution of the hydrogel, for the whole duration of the experiment.
To score the severity of inflammation of the back skin, an objective scoring system was developed based on the clinical Psoriasis Area and severity index (PASI), except that for the mouse model the affected skin area is not taken into account in the overall score. Erythema, scaling, and thickening was scored independently on a scale from 0 to 4:0, none; 1, slight; 2, moderate; 3, marked; 4, very marked. The level of erythema was scored using a scoring table with red taints. The cumulative score (erythema plus scaling plus thickening) served as a measure of the severity of inflammation (scale 0-12).
• 0: None; 1: Slight; 2: Moderate; 3: Marked; 4: Very Marked.
One of the important characteristic feature of psoriasis and the psoriasis-like skin inflammation was abnormal increase of epidermal skin thickness which was measured by vernier calipers.
The IMQ induced, skin tissue sections (H&E stain) were collected after ten days (D1-D10) from all groups.

CC(C)Cn1cnc2c(N)nc3ccccc3c21 [IMQ, Imiquimod]
IL-1β (pg/mL), mean concentration [1]: 93.63 ± 2.87 pg/mL | IL-17 (pg/mL), mean concentration [1]: 99.82 ± 3.03 pg/mL | IL-23 (pg/mL), mean concentration [1]: 98.73 ± 3.27 pg/mL | epidermal skin thickness with IMQ only ([2]; increased from 1.15 mm, IMQ only applied topically): 2.22 mm | cumulative score on day 5 ([2]; scale 0-12, day 5, IMQ only): 12 | cumulative score (erythema+scaling+skin thickness) on day 10 ([2]; scale 0-12, day 10): 12 | spleen size (spleen index) ([2]; treatment D6-D10): 15 mg/g
